{"source": "paper PMC10705946", "about": "“^225Ac-iPSMA-RGD for Alpha-Therapy Dual Targeting of Stromal/Tumor Cell PSMA and Integrins” (International Journal of Molecular Sciences, 2023)", "origin": "cited, not measured here", "system": "glioma cells", "parameters": "method as in PMID 29611298", "conditions": "after 24 h of treatment, cells overexpressing the substance P receptor; cited from earlier work", "note": "Ends that are not written are not given here."}
{"substance": "^225Ac-labeled substance P: ^225Ac-labeled ligand of the neurokinin-1 receptor (RPKPQQFFGLM; ends and bridges not checked; also: 225Ac radiolabel, attachment not given here; UniProt P20366 58-68, looked up)", "values": [{"measurement": "Increase of apoptotic cells", "value": 25, "unit": "%"}]}
